Assay [1] addresses T1, P2X7 (Homo sapiens, UniProt Q99572).
T1 sequence (Q99572 1-595): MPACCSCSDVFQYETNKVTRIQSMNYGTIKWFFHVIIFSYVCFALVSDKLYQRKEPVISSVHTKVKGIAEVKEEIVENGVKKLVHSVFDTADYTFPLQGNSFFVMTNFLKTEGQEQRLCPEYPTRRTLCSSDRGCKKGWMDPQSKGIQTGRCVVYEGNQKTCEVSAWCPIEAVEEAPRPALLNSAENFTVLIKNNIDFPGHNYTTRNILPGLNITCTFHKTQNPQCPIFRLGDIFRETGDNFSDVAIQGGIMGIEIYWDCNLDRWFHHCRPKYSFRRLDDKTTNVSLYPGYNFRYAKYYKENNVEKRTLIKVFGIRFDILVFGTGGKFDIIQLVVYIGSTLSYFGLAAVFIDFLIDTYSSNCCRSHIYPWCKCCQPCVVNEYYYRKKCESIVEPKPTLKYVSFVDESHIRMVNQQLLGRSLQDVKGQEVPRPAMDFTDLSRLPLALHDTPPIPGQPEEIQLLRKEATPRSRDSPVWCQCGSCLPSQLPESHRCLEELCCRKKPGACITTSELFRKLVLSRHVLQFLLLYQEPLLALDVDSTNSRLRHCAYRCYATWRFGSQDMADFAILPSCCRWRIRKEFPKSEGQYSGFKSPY
The assay can be described thus: Pore permeation assay (YO PRO dye uptake, BzATP-induced). The format is cell-based. Set-up: expressed in transfected cells; host or cells: HEK293. The following applies: HEK293 transfected with human P2X7 receptor; YO PRO dye 1 uM, BzATP 10 uM; read-out: hP2X7 IC50. Here is the method: Agonist-induced pore formation was determined by measuring cellular uptake of YO PRO fluorescence dye in HEK293 transfected with human P2X7 receptor. A HEK293 cell over expressing human P2X7 was harvested using HQTase reagent to detach the cells from T75 cm flask. The harvested cells are centrifuged @ 1200 rpm for 5 min at room temperature. The viability of cells was determined by Trypan blue dye and the cells are plated @ 10,000 cell/well in 50 ul volume in a 384 W BD Poly lysine coated plate and incubated overnight at 37 C. After overnight incubation, the culture medium was replaced with 35 ul/well assay buffer (5 mM KCl, 0.1 mM CaCl2, 5 mM Glucose, 10 mM HEPES buffer pH7.4 containing 125 mM NaCl. The serial dilution of compounds was performed using Bravo liquid handling instrument and the compounds were added using Bravo to the cell assay plate starting at 2.5 uM with three dilutions for 10 points. The positive control inhibitor compound was added to column 23. The plate was shaken slowly on a plate shaker for 10 seconds. The cells were incubated with the compound for 20 minutes at room temperature. After the incubation period, YO PRO dye (1 uM) along with BzATP (10 uM) were added to cells at 10 ul/well. The plate was centrifuged at 1000 rpm for 5 seconds and incubated at room temperature for 30 minutes. The uptake of YO PRO dye into the cells was measured using Envision Fluorescence plate reader instrument (Perkin Elmer).

The target of assay [2] is T1, P2X7. The assay can be described thus: IL-1β release assay in THP-1 cells (sandwich ELISA). It counts as cell-based. Set-up: release of mature IL-1β in the culture medium of THP-1 cells; endogenous in cells; host or cells: THP-1 cells (PMA-differentiated, LPS-primed). To be noted: PMA, LPS primed, stimulated with 0.8 mM BzATP, mature IL-1β release, read-out: hTHP-1/IL-ib IC50. Here is the method:
The activation of P2X7 by ATP leads to a fast transient activation of cells resulting in influx of Ca^2+ followed by conversion of pro-IL-1β to active IL-1β. The functional activity of P2X7 compounds was measured by the release of mature IL-1β in the culture medium of THP-1 cells, detected by sandwich ELISA. Cells were maintained in complete growth medium (RPMI 1640+10% HI-FCS+2 mM L-glutamine+1×PS). […] THP-1 cells were harvested from the flask in 50 ml by centrifugation for 3 min at 100 g. The cells were resuspended to 2×10^5 cells/ml in medium supplemented with 0.5 μM PMA and incubated. The cells were washed and resuspended to 1.5×10^5 cells/ml in medium complemented with 10 ng/ml LPS, and the cells were primed for 4 h at 37° C., 5% CO2. After addition of 20 μL of prediluted test compounds, blank, standard and control reagents, cells were incubated for a further 20 min at 37° C. and stimulated with 0.8 mM BzATP for 30 minutes. The cells were centrifuged, supernatant was collected and the presence of mature IL-1β was detected using Dual human IL-1b kit following manufacturer's instruction. The tetrahydrobenzodiazepine analogs effectively modulated the activity of P2X7 in the cells as measured by the levels of pro-inflammatory cytokine IL-1β, which is released by the activation of P2X7 receptor.
(In an ELISA, binding on a coated surface is turned into a signal by an enzyme label.)

Consider 24 compounds from patent US9399623B2, “Quinoline derivatives and their use in neurodegenerative diseases” (Merck Patent GmbH, priority 2014, dated 2016).

pIC50: −log10 of the molar value.

For the compound `O=C(NCC1CCC(F)(F)CC1)c1c(Cl)ccc2nc(C3CCNCC3)ccc12` [Compound 53, 6-Chloro-2-piperidin-4-yl-quinoline-5-carboxylic acid (4,4-difluorocyclohexylmethyl)-amide], the pIC50 at P2X7 [1] is 7.00 to 8.00.
Take `O=C(NCC1CCC(F)(F)CC1)c1c(Cl)ccc2nc(N3CCC3)ccc12` [Compound 49, 2-(azetidin-1-yl)-6-Chloro-quinoline-5-carboxylic acid (4,4-difluoro-cyclohexylmethyl)-amide]: the pIC50 at P2X7 [2] and on P2X7 [1] was 7.00 to 8.00 each time.
Consider `C[C@@H]1CCC[C@](O)(CNC(=O)c2c(Cl)ccc3nc(N4CCC(F)(F)C4)ccc23)C1` [Compound 10, 6-Chloro-2-(3,3-difluoropyrrolidin-1-yl)-quinoline-5-carboxylic acid ((1R,3R)-1-hydroxy-3-methyl-cyclohexylmethyl)-amide], for which the pIC50 on P2X7 [2] was 7.00 to 8.00; on P2X7 [1], over 8.00.
The like results for `O=C(NCC1(O)CCC(F)(F)CC1)c1c(Cl)ccc2nc(N3CCC(N4CCCC4)C3)ccc12` (centres unmarked) [Compound 27, 6-Chloro-2-(3-pyrrolidinyl-pyrrolidin-1-yl)-quinoline-5-carboxylic acid (4,4-difluoro-1-hydroxy-cyclohexylmethyl)-amide] were, in that order, 7.00 to 8.00 and 7.00 to 8.00.
Regarding `O=C(NCC1CCC(F)(F)CC1)c1c(Cl)ccc2nc(N3CCC(CCO)C3)ccc12` (centres unmarked) [Compound 56], the pIC50 at P2X7 [2] and on P2X7 [1] was 7.00 to 8.00 each time.
For the compound `O=C(NCC1CCC(F)(F)CC1)c1c(Cl)ccc2nc(N3CC[C@@H](O)C3)ccc12` [Compound 61], the pIC50 at P2X7 [2] is 6.30 to 7.00; on P2X7 [1], 7.00 to 8.00.
Turning to `O=C(NCC1CCC(F)(F)CC1)c1c(Cl)ccc2nc(N3CCC(N4CCCC4)C3)ccc12` (centres unmarked) [Compound 30, 6-Chloro-2-(3-pyrrolidinyl-pyrrolidin-1-yl)-quinoline-5-carboxylic acid (4,4-difluoro-cyclohexylmethyl)-amide], the pIC50 on P2X7 [2] and at P2X7 [1] was 7.00 to 8.00 throughout.
Consider `COCCOc1ccc2c(C(=O)NCC3CCC(F)(F)CC3)c(Cl)ccc2n1` [Compound 70, 6-Chloro-2-(2-methoxy-ethoxy)-quinoline-5-carboxylic acid (4,4-difluoro-cyclohexyl methyl)-amide], for which the pIC50 at P2X7 [2] is 6.30 to 7.00; at P2X7 [1], 7.00 to 8.00.
In the case of `C[C@@H]1CCC[C@](O)(CNC(=O)c2c(Cl)ccc3nc(N4CC[C@@H](F)C4)ccc23)C1` [Compound 8, 6-Chloro-2-(3-(R)-fluoropyrrolidin-1-yl)-quinoline-5-carboxylic acid ((1R,3R)-1-hydroxy-3-methyl-cyclohexylmethyl)-amide], the pIC50 at P2X7 [2] was 7.00 to 8.00; on P2X7 [1], over 8.00.
For the compound `CN(C)C(=O)CCNc1ccc2c(C(=O)NCC3CCC(F)(F)CC3)c(Cl)ccc2n1` [Compound 82, 6-Chloro-2-(2-dimethylcarbamoyl-ethylamino)-quinoline-5-carboxylic acid (4,4-difluoro-cyclo hexyl methyl)-amide], on P2X7 [1], the pIC50 is 6.30 to 7.00.
On the same count and under the same terms, to `C[C@H]1CCC[C@@](O)(CNC(=O)c2c(Cl)ccc3nc(N4CCCC4)ccc23)C1` [Compound 2, 6-Chloro-2-pyrrolidin-1-yl-quinoline-5-carboxylic acid ((1S,3S)-1-hydroxy-3-methyl-cyclohexylmethyl)-amide] belongs over 8.00; to `O=C(NCC1CCC(F)(F)CC1)c1c(Cl)ccc2nc(N3CCCC(C(=O)O)C3)ccc12` (centres unmarked) [Compound 79, 1-{6-Chloro-5-[(4,4-difluoro-cyclohexylmethyl)-carbamoyl]-quinolin-2-yl}-piperidine-3-carboxylic acid], 6.30 to 7.00.
Same read-out and setting: to `CCOC(=O)CCNc1ccc2c(C(=O)NCC3CCC(F)(F)CC3)c(Cl)ccc2n1` [Compound 81, 3-{6-Chloro-5-[(4,4-difluoro-cyclohexylmethyl)-carbamoyl]-quinolin-2-ylamino}-propionic acid ethyl ester] belongs 6.30 to 7.00; to `O=C(O)CCNc1ccc2c(C(=O)NCC3CCC(F)(F)CC3)c(Cl)ccc2n1` [Compound 83, 3-{6-Chloro-5-[(4,4-difluorocyclohexylmethyl)-carbamoyl]-quinolin-2-ylamino}-propionic acid], under 6.00.
On the same count and under the same terms, to `CC(C)(C)OC(=O)N1CCC(c2ccc3c(C(=O)NCC4CCC(F)(F)CC4)c(Cl)ccc3n2)CC1` [Compound 71, 4-{6-Chloro-5-[(4,4-difluoro-cyclohexylmethyl)-carbamoyl]-quinolin-2-yl}-piperidine-1-carboxylic acid tert-butyl ester] belongs 7.00 to 8.00; to `O=C(NCC1CCC(F)(F)CC1)c1c(Cl)ccc2nc(N3CCC(O)C3)ccc12` (centres unmarked) [Compound 57, 6-Chloro-2-(3-hydroxy-pyrrolidin-1-yl)-quinoline-5-carboxylic acid (4,4-difluoro-cyclo hexylmethyl)-amide], 7.00 to 8.00; to `O=C1C=C(c2ccc3c(C(=O)NCC4CCC(F)(F)CC4)c(Cl)ccc3n2)CC1` [Compound 72], 7.00 to 8.00.
Regarding `O=C(NCC1CCC(F)(F)CC1)c1c(Cl)ccc2nc(C3CCCC3)ccc12` [Compound 43, 6-Chloro-2-cyclopentyl-quinoline-5-carboxylic acid (4,4-difluoro-cyclohexylmethyl)-amide], the pIC50 at P2X7 [1] is 7.00 to 8.00.
Same read-out and setting: to `C[C@H]1CCC[C@@](O)(CNC(=O)c2c(Cl)ccc3nc(C4CCCC4)ccc23)C1` [Compound 7, 6-Chloro-2-cyclopentyl-quinoline-5-carboxylic acid ((1S,3S)-1-hydroxy-3-methyl-cyclohexylmethyl)-amide] belongs over 8.00.
On the same count and under the same terms, as for `C[C@@H]1CCC[C@](O)(CNC(=O)c2c(Cl)ccc3nc(N4CCCC4)ccc23)C1` [Compound 16, 6-Chloro-2-pyrrolidin-1-yl-quinoline-5-carboxylic acid ((1R,3R)-1-hydroxy-3-methyl-cyclohexylmethyl)-amide], the figure is over 8.00; as for `C[C@@H]1CCC[C@](O)(CNC(=O)c2c(Cl)ccc3nc(N4CC[C@@H](N(C)C)C4)ccc23)C1` [Compound 22, 6-Chloro-2-((R)-3-dimethylamino-pyrrolidin-1-yl)-quinoline-5-carboxylic acid ((1R,3R)-1-hydroxy-3-methyl-cyclohexylmethyl)-amide], 7.00 to 8.00; as for `C[C@@H]1CCC[C@](O)(CNC(=O)c2c(Cl)ccc3nc(C4CCCC4)ccc23)C1` [Compound 15, 6-Chloro-2-cyclopentyl-quinoline-5-carboxylic acid ((1R,3R)-1-hydroxy-3-methyl-cyclohexylmethyl)-amide], over 8.00.
The same measure, in the same setting: as for `CC1CCCC(O)(CNC(=O)c2c(Cl)ccc3nc(N4CC[C@@H](N(C)C)C4)ccc23)C1` (some centres unmarked) [Compound 14], the figure is over 8.00.
For the compound `COCCCNc1ccc2c(C(=O)NCC3CCC(F)(F)CC3)c(Cl)ccc2n1` [Compound 77, 6-Chloro-2-(3-methoxy-propylamino)-quinoline-5-carboxylic acid (4,4-difluoro-cyclohexyl methyl)-amide], the pIC50 at P2X7 [1] was 6.30 to 7.00.
